Results as given in ChEMBL document CHEMBL1649453, “Activity of temocillin against KPC-producing Klebsiella pneumoniae and Escherichia coli” (Antimicrob Agents Chemother, 2009).
≈ marks a conversion by molar mass, not a printed value.

Columns and labels:
[1] = Drug level in human urine at 500 mg, im bid for 3 days; format: ADME, organism-based; conditions: read-out: Drug uptake
Escherichia coli [2] = experiment: Antimicrobial activity against Escherichia coli DH10B by agar dilution method; format: functional; conditions: K-12 DH10B
[3] = Cmax in human serum at 1 gram, iv; format: ADME, organism-based; design: route intravenous
Escherichia coli [4] = experiment: Antimicrobial activity against Escherichia coli clinical isolates expressing beta-lactamase KPC gene by agar dilution method; format: functional
[5] = Half life in human serum at 1 gram, iv; format: ADME, organism-based
Escherichia coli [6] = experiment: Antimicrobial activity against Escherichia coli DH10B harboring pBCSK plasmid expressing beta-lactamase KPC gene by agar dilution method; format: functional; conditions: K-12 DH10B
Klebsiella pneumoniae = experiment: Antimicrobial activity against Klebsiella pneumoniae expressing beta-lactamase KPC gene by agar dilution method; format: functional
[7] = Protein binding in human serum at 1 gram, iv; format: ADME, organism-based; conditions: read-out: PB (converted)

CO[C@@]1(NC(=O)C(C(=O)O)c2ccsc2)C(=O)N2[C@@H](C(=O)O)C(C)(C)S[C@@H]21 (some centres undefined) [TEMOCILLIN]
concentration at 72 h [1]: 500 µg/mL
MIC (Escherichia coli [2]): 8 µg/mL (≈ 19.3 µM)
Cmax [3]: 160 µg/mL
MIC (Escherichia coli [4]): 8 µg/mL (≈ 19.3 µM)
half-life [5]: 4 h
MIC (Escherichia coli [6]): 8 µg/mL (≈ 19.3 µM)
MIC50 (Klebsiella pneumoniae): 32 µg/mL (≈ 77.2 µM)
MIC90 (Klebsiella pneumoniae): 32 µg/mL (≈ 77.2 µM)
fraction unbound [7]: 0.15
